The values below come from patent publication US8143374B2, “Polypeptide derivatives of parathyroid hormone (PTH)” (The General Hospital Corporation, priority 2006, dated 2012).

Where a SMILES comes first, the peptide text is derived from it. [ ]: non-standard residue; d: D form. Cha = N[C@@H](CC1CCCCC1)C(=O)O

A word on the IC50: it is the midpoint of a concentration-inhibition curve.

A short description of data set [1]: Circular dichroism spectroscopy, helical residues per peptide chain. Conditions: [Ala1,Arg19]hPTH(1-31)NH2 analogs; calculated from [θ]222. The data set is classed as physicochemical. As for the experimental part: Circular Dichroism—CD spectra were obtained on a JASCO J-600 spectropolarimeter at 20° C. Four spectra were averaged and the data smoothed by the JASCO software. The instrument was calibrated with ammonium (+)-10-camphorsulfonate. Peptide concentrations were verified from the absorption at 280 nm, using an extinction coefficient of 5700 M^−1 for the single tryptophan. Data are expressed as the number of helical residues per peptide chain, as calculated from −[θ]222×30/28,000, where [θ]222 is the mean residue elipticity ([θ]) at 222 nm, as was described previously (Barbier, J. R., et al. (2005) J Biol Chem. 280:23771-23777).

The target in another data set is T1, PTHR-delNt (Homo sapiens, UniProt Q03431, DEL24-181).
T1 construct: expressed in transfected cells; host or cells: COS-7 cells, transient co-transfection; membranes prepared
T1 sequence (Q03431 with tags, fused parts or gaps DEL24-181): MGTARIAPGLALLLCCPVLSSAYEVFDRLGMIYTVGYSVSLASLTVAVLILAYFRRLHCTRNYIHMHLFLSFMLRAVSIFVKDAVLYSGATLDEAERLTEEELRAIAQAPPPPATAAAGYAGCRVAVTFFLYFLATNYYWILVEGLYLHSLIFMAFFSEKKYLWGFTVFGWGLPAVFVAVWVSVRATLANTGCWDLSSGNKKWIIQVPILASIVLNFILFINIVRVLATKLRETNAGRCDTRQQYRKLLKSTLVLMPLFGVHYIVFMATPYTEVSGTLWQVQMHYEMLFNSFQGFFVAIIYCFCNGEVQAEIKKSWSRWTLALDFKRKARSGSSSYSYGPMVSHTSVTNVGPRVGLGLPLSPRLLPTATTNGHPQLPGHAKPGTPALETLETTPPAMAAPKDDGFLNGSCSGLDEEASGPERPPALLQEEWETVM
The experiment in a line: Competition binding in COS-7 cell membranes with 125I-[Aib1,3,M]PTH(1-15)NH2 tracer. Conditions: for IC50: [Ala1,Arg19]hPTH(1-31)NH2 analogs, COS-7 membranes cotransfected with negative-dominant Gαs, read-out: PTHR-delNT (COS-7) IC50. On the procedure:
PTHR-delNt is a derivative of the human PTHR that is deleted for most (Ala^24-Arg^181) of the amino-terminal extracellular domain (Shimizu, M., et al. (2001) Endocrinology 142:3068-3074). This PTHR construct was expressed in COS-7 cells via transient DNA transfection. For cAMP assays, the cells were transfected in 24-well plates using 0.2 μg of plasmid DNA and 0.6 μl of Fugene-6 reagent (Roche Diagnostics, Indianapolis Ind.) per well, and assays were performed on the intact cells three to four days after transfection. For binding assays, cell membranes were prepared from transfected COS-7 cells. To increase the maximal binding of ^125I-[Aib^1,3,M]PTH(1-15)NH2 to PTHR-delNt in these membranes, the cells were cotransfected with a negative dominant mutant Gαs protein (Gαs^ND). This mutant Gαs subunit is thought to couple to cognate receptors, and thus stabilize high affinity receptor conformations, more efficiently than does wild-type Gαs, without increasing basal cAMP levels (Berlot, C. H. (2002) J Biol Chem 277:21080-5). A precursor of this mutant Gαs, Gαs(α3β5), was recently used to increase binding of ^125I-[Aib^1,3,M]PTH(1-15)NH2 to PTHR-delNt in COS-7 cell membranes (Dean, T., (2006) Mol Endocrinol 20:931-942). Gαs^ND, which contains the same five amino acid replacement of corresponding Gαi residues in the α3β5 loop as Gαs(α3β5), plus the point mutations of Gly^226 to Ala, which increases affinity for Gβ/γ, and Ala^366 to Ser, which decreases affinity for GDP, yields approximately two-fold higher levels of specific binding of ^125I-[Aib^1,3,M]PTH(1-15)NH2 than does Gαs(α3β5) (data not shown). For the current membrane preparations, COS-7 cells were co-transfected in six-well plates using 1 μg of each plasmid DNA encoding PTHR-delNt and Gαs^ND, and 6 μl of Fugene-6 reagent (Roche Diagnostics, Indianapolis Ind.) per well. Cells were harvested three days after transfection, and membranes were prepared as described (Dean, T., et al. (2006) Mol Endocrinol 20:931-942).
Receptor binding—Binding to the wild-type human PTHR in intact HKRK-B7 cells and ROS 17/2.8 cells was assessed using ^125I-PTH(1-34) as a tracer radioligand, as described (Shimizu, M., (2001) Endocrinology 142:3068-3074). In brief, the cells in 24-well plates (about 500,000 cells per well) were incubated in binding buffer containing radioligand (about 100,000 cpm per well) with or without unlabeled peptide ligand (3×10^−9 to 1×10^−5 M) for four hours at 15° C. The binding mixture was then removed by aspiration, the cells were rinsed three times with binding buffer, lysed in 1 M NaOH, and the entire lysate was counted for gamma-irradiation in a gamma counter. Binding to PTHR-delNt in COS-7 cell membranes was assessed in 96-well, vacuum filtration plates (Multiscreen-Durapore HV, […] membranes, Millipore Corp., Millford, Mass.) using ^125I-[Aib^1,3,M]PTH(1-15)NH2 as a tracer radioligand, as described (Dean, T., (2006) Mol Endocrinol 20:931-942). In brief, cell membranes (20 μg/well) were incubated in membrane binding buffer containing radioligand (30,000 cpm/well) with or without unlabeled peptide ligand (3×10^−9 to 1×10^−5 M) for 90 minutes at 21° C. The plates were then subject to rapid vacuum filtration, the filters were washed once with buffer, detached from the plate and counted for gamma-irradiation in a gamma counter. Non-specific binding was defined as the binding observed in the presence of 1×10^−6 M PTH(1-31)NH2 for HKRK-B7 and ROS 17/2.8 cells, and 1×10^−6 M [Aib^1,3,M]PTH(1-15)NH2 for PTHR-delNt. Specifically bound radioactivity was calculated as a percentage of the radioactivity specifically bound in the absence of competing ligand. […]

`CC[C@H](C)[C@H](NC(=O)[C@H](CCC(=O)O)NC(=O)[C@H](CO)NC(=O)[C@@H](NC(=O)[C@H](C)N)C(C)C)C(=O)N[C@@H](CCC(N)=O)C(=O)N[C@@H](CC(C)C)C(=O)N[C@@H](CCSC)C(=O)N[C@@H](Cc1c[nH]cn1)C(=O)N[C@@H](CC(N)=O)C(=O)N[C@@H](CC(C)C)C(=O)NCC(=O)N[C@@H](CCCCN)C(=O)N[C@@H](Cc1c[nH]cn1)C(=O)N[C@@H](CC(C)C)C(=O)N[C@@H](CC(N)=O)C(=O)N[C@@H](CO)C(=O)N[C@@H](CCSC)C(=O)N[C@@H](CCCNC(=N)N)C(=O)N[C@@H](CCCNC(=N)N)C(=O)N[C@H](C(=O)N[C@@H](CCC(=O)O)C(=O)N[C@@H](CC1CCCCC1)C(=O)N[C@@H](CC(C)C)C(=O)N[C@@H](CCCNC(=N)N)C(=O)N[C@@H](CCCCN)C(=O)N[C@@H](CCCCN)C(=O)N[C@@H](CC(C)C)C(=O)N[C@@H](CCC(N)=O)C(=O)N[C@@H](CC(=O)O)C(=O)N[C@H](C(N)=O)C(C)C)C(C)C` [Trp^23→Cha] (H-AVSEIQLMHNLGKHLNSMRRVE[Cha]LRKKLQDV-NH2; N-terminus assumed): the CD helical residues in data set [1] was 8. The “effect on binding to PTHR-delNt (in words)” value at PTHR-delNt (COS-7 membranes) is “little or no effect on binding to PTHR-delNt”. Besides, the “reduction (alteration) of binding affinity for PTHR-delNt relative to parent peptide” value on PTHR-delNt (COS-7 membranes, versus the respective parent peptide) is given as “three-fold or less”. For the same compound, the IC50 at PTHR-delNt is 867 ± 402 nM.
As for `CC[C@H](C)[C@H](NC(=O)[C@H](CCC(=O)O)NC(=O)[C@H](CO)NC(=O)[C@@H](NC(=O)[C@H](C)N)C(C)C)C(=O)N[C@@H](CCC(N)=O)C(=O)N[C@@H](CC(C)C)C(=O)N[C@@H](CCSC)C(=O)N[C@@H](Cc1c[nH]cn1)C(=O)N[C@@H](CC(N)=O)C(=O)N[C@@H](CC(C)C)C(=O)NCC(=O)N[C@@H](CCCCN)C(=O)N[C@@H](Cc1c[nH]cn1)C(=O)N[C@@H](CC(C)C)C(=O)N[C@@H](CC(N)=O)C(=O)N[C@@H](CO)C(=O)N[C@@H](CCSC)C(=O)N[C@@H](CC1CCCCC1)C(=O)N[C@@H](CCCNC(=N)N)C(=O)N[C@H](C(=O)N[C@@H](CCC(=O)O)C(=O)N[C@@H](Cc1c[nH]c2ccccc12)C(=O)N[C@@H](CC(C)C)C(=O)N[C@@H](CCCNC(=N)N)C(=O)N[C@@H](CCCCN)C(=O)N[C@@H](CCCCN)C(=O)N[C@@H](CC(C)C)C(=O)N[C@@H](CCC(N)=O)C(=O)N[C@@H](CC(=O)O)C(=O)N[C@H](C(N)=O)C(C)C)C(C)C` [Arg^19→Cha] (H-AVSEIQLMHNLGKHLNSM[Cha]RVEWLRKKLQDV-NH2; N-terminus assumed), in data set [1], the CD helical residues is given as 10. On PTHR-delNt, the IC50 is 780 ± 83 nM.
For `CC[C@H](C)[C@H](NC(=O)[C@H](CCC(=O)O)NC(=O)[C@H](CO)NC(=O)[C@@H](NC(=O)[C@H](C)N)C(C)C)C(=O)N[C@@H](CCC(N)=O)C(=O)N[C@@H](CC(C)C)C(=O)N[C@@H](CCSC)C(=O)N[C@@H](Cc1c[nH]cn1)C(=O)N[C@@H](CC(N)=O)C(=O)N[C@@H](CC(C)C)C(=O)NCC(=O)N[C@@H](CCCCN)C(=O)N[C@@H](Cc1c[nH]cn1)C(=O)N[C@@H](CC(C)C)C(=O)N[C@@H](CC(N)=O)C(=O)N[C@@H](CO)C(=O)N[C@@H](CC1CCCCC1)C(=O)N[C@@H](CCCNC(=N)N)C(=O)N[C@@H](CCCNC(=N)N)C(=O)N[C@H](C(=O)N[C@@H](CCC(=O)O)C(=O)N[C@@H](Cc1c[nH]c2ccccc12)C(=O)N[C@@H](CC(C)C)C(=O)N[C@@H](CCCNC(=N)N)C(=O)N[C@@H](CCCCN)C(=O)N[C@@H](CCCCN)C(=O)N[C@@H](CC(C)C)C(=O)N[C@@H](CCC(N)=O)C(=O)N[C@@H](CC(=O)O)C(=O)N[C@H](C(N)=O)C(C)C)C(C)C` [Met^18→Cha] (H-AVSEIQLMHNLGKHLNS[Cha]RRVEWLRKKLQDV-NH2; N-terminus assumed), the CD helical residues in data set [1] is listed as 8. On PTHR-delNt, the IC50 is 408 ± 32 nM.
As to `CC[C@H](C)[C@H](NC(=O)[C@H](CCC(=O)O)NC(=O)[C@H](CO)NC(=O)[C@@H](NC(=O)[C@H](C)N)C(C)C)C(=O)N[C@@H](CCC(N)=O)C(=O)N[C@@H](CC(C)C)C(=O)N[C@@H](CCSC)C(=O)N[C@@H](Cc1c[nH]cn1)C(=O)N[C@@H](CC(N)=O)C(=O)N[C@@H](CC(C)C)C(=O)NCC(=O)N[C@@H](CCCCN)C(=O)N[C@@H](Cc1c[nH]cn1)C(=O)N[C@@H](CC(C)C)C(=O)N[C@@H](CC(N)=O)C(=O)N[C@@H](CO)C(=O)N[C@@H](CCSC)C(=O)N[C@@H](CCCNC(=N)N)C(=O)N[C@@H](CCCNC(=N)N)C(=O)N[C@@H](CC1CCCCC1)C(=O)N[C@@H](CCC(=O)O)C(=O)N[C@@H](Cc1c[nH]c2ccccc12)C(=O)N[C@@H](CC(C)C)C(=O)N[C@@H](CCCNC(=N)N)C(=O)N[C@@H](CCCCN)C(=O)N[C@@H](CCCCN)C(=O)N[C@@H](CC(C)C)C(=O)N[C@@H](CCC(N)=O)C(=O)N[C@@H](CC(=O)O)C(=O)N[C@H](C(N)=O)C(C)C` [Val^21→Cha] (H-AVSEIQLMHNLGKHLNSMRR[Cha]EWLRKKLQDV-NH2; N-terminus assumed), in data set [1], the CD helical residues is reported as 9. Moreover, at PTHR-delNt, the IC50 was found to be 564 ± 172 nM.
Take `CC[C@H](C)[C@H](NC(=O)[C@H](CCC(=O)O)NC(=O)[C@H](CO)NC(=O)[C@@H](NC(=O)[C@H](C)N)C(C)C)C(=O)N[C@@H](CCC(N)=O)C(=O)N[C@@H](CC(C)C)C(=O)N[C@@H](CCSC)C(=O)N[C@@H](Cc1c[nH]cn1)C(=O)N[C@@H](CC(N)=O)C(=O)N[C@@H](CC(C)C)C(=O)NCC(=O)N[C@@H](CCCCN)C(=O)N[C@@H](Cc1c[nH]cn1)C(=O)N[C@@H](CC(C)C)C(=O)N[C@@H](CC(N)=O)C(=O)N[C@@H](CO)C(=O)N[C@@H](CCSC)C(=O)N[C@@H](CCCNC(=N)N)C(=O)N[C@@H](CCCNC(=N)N)C(=O)N[C@H](C(=O)N[C@@H](CCC(=O)O)C(=O)N[C@@H](Cc1c[nH]c2ccccc12)C(=O)N[C@@H](CC(C)C)C(=O)N[C@@H](CCCNC(=N)N)C(=O)N[C@@H](CCCCN)C(=O)N[C@@H](CC1CCCCC1)C(=O)N[C@@H](CC(C)C)C(=O)N[C@@H](CCC(N)=O)C(=O)N[C@@H](CC(=O)O)C(=O)N[C@H](C(N)=O)C(C)C)C(C)C` [Lys^27→Cha] (H-AVSEIQLMHNLGKHLNSMRRVEWLRK[Cha]LQDV-NH2; N-terminus assumed): the CD helical residues in data set [1] is 18. For the same compound, at PTHR-delNt, the IC50 stood at 629 ± 72 nM.
